Results as given in patent publication US20250092065A1, “2-(INDAZOL-5-YL)-6-(PIPERIDIN-4-YL)-1,7-NAPHTHYRIDINE DERIVATIVES AND RELATED COMPOUNDS AS MODULATORS FOR SPLICING NUCLEIC ACIDS AND FOR THE TREATMENT OF PROLIFERATIVE DISEASES” (REMIX THERAPEUTICS INC., priority 2022, published 2025).
Where two headings read alike, the source gives them in different places.

Legend:
SMN2 mRNA = assay: RT-qPCR splicing assay, SMN2 mRNA; type: cell-based, human; conditions: Homo sapiens, canonical junction qPCR panel, Table 4; read-out: SMN2 IC50 (decrease in CJ mRNA levels)
Summary of the method: (§1)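 Both isoforms, CJ and AJ, read by qPCR from crude lysates of treated A673 or K562 cells; 24 h, 37 °C, maximum 10 uM. Normalization: housekeeper ΔCt, then DMSO ΔΔCt.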

HTT = assay: HiBiT protein abundance assay, HTT (K562 HiBiT knock-in); type: cell-based, human; conditions: HiBiT knock-in K562 cells, 24 hours, top dose 10 μM
Summary of the method: (§2)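 Steps: seed HiBiT knock-in K562 cells; add compound in 10-point 3-fold series from 10 μM final; incubate 24 h, 37 °C; add lytic HiBiT reagent, shake 5 min, wait 10 min; read luminescence. Normalize to parental K562 and DMSO controls, fit 4PL, take IC50.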

HTT mRNA = assay: RT-qPCR splicing assay, HTT mRNA canonical (CJ) and alternative (AJ) junction; type: cell-based, human; conditions: Homo sapiens; for AC50: HTT alternative junction mRNA, read-out: HTT AJ (increase in AJ mRNA, AC50)
Summary of the method: as §1

MYB mRNA = assay: RT-qPCR splicing assay, MYB mRNA canonical (CJ) and alternative (AJ) junction; type: cell-based, human; conditions: Homo sapiens; for AC50: MYB alternative junction mRNA, read-out: MYB AJ (increase in AJ mRNA, AC50)
Summary of the method: as §1

MYB = assay: HiBiT protein abundance assay, MYB (K562 HiBiT knock-in); type: cell-based, human; conditions: HiBiT knock-in K562 cells, 24 hours, top dose 10 μM
Summary of the method: as §2

K562 cells = assay: Cell Titer Glo 2.0 cell viability (toxicity) assay, K562; conditions: 500 cells/well, 72 hours
Method: Compounds described herein were screened for toxicity in K562 (human chronic myelogenous leukemia) and SH-SY5Y (human neuroblastoma) cells using a Cell Titer Glo 2.0 assay.
Cells were plated at 500 cells/well (K562 cells) in 45 μL of IMDM supplemented with 10% FBS in a 384-well opaque plate. Wells containing only medium were used as a blank control. Test compounds (e.g., compounds of Formula (I) or (II)) were first serially diluted in DMSO then diluted 1:100 with EIDM+10% FBS. The final concentration of DMSO was 0.1% in each well. The cells were incubated for 72 hours at 37° C. and 5% CO2 before assaying with Cell Titer Glo 2.0 reagent.

Target C = assay: HiBiT protein abundance assay, Target C (K562 HiBiT knock-in); type: cell-based, human; conditions: HiBiT knock-in K562 cells, 24 hours, top dose 10 μM
Summary of the method: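 K562 HiBiT knock-in cells (10000/well) were treated 24 h at 37° C with a 10-point 3-fold dilution series (top 10 μM final, ≤0.25% DMSO). HiBiT luminescence was read after lytic LgBiT detection. Percent response used unmodified K562 and DMSO-treated knock-in controls, and IC50 came from a four-parameter fit at 50% of untreated.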

[1] = HTT canonical junction mRNA, RT-qPCR, read-out: HTT CJ (decrease in CJ mRNA levels, IC50)
[2] = canonical junction qPCR panel, Table 4, read-out: HTT IC50 (decrease in CJ mRNA levels)
[3] = MYB canonical junction mRNA, RT-qPCR, read-out: MYB CJ (decrease in CJ mRNA levels, IC50)
[4] = canonical junction qPCR panel, Table 4, read-out: MYB IC50 (decrease in CJ mRNA levels)

IC50 (SMN2 mRNA) [nM]	IC50 (HTT) [nM]	IC50 (HTT mRNA; [1]) [nM]	IC50 (HTT mRNA; [2]) [nM]	IC50 (MYB mRNA; [3]) [nM]	IC50 (MYB mRNA; [4]) [nM]	IC50 (MYB) [nM]	IC50 (Target C) [nM]	SMILES	AC50 (HTT mRNA; RT-qPCR) [nM]	AC50 (MYB mRNA; RT-qPCR) [nM]	Effect of Exemplary Compounds on Cell Viability, K562 (K562 cells)
< 100	< 100	< 100	< 100	< 100	< 100	< 100	100 to 1000	Cn1cc2cc(-c3ccc4nc(N5CC[C@@H](NC6CCC6)C5)ccc4n3)c(O)cc2n1 [Compound 157]	< 100	< 100	B (B represents 100-1000 nM)
< 100	< 100	< 100	< 100	< 100	< 100	< 100	100 to 1000	Cn1cc2cc(-c3ccc4nc(N5CCC(NC6CC6)C5)ccc4n3)c(O)cc2n1 (stereo not shown) [Compound 158]	< 100	< 100	B (B represents 100-1000 nM)
100 to 1000	100 to 1000	1000 to 10000	1000 to 10000	1000 to 10000	1000 to 10000	100 to 1000	1000 to 10000	Cn1cc2cc(-c3ccc4nc(OC5CNC5)ccc4n3)c(O)cc2n1 [Compound 159]	1000 to 10000	1000 to 10000	C (C represents 1000-9999 nM)
< 100	100 to 1000	100 to 1000	100 to 1000	100 to 1000	100 to 1000	100 to 1000	100 to 1000	Cn1cc2cc(-c3ccc4nc(N5CC[C@]67CCN[C@H]6CC[C@H]57)ccc4n3)c(O)cc2n1 [Compound 160]	100 to 1000	100 to 1000	B (B represents 100-1000 nM)
1000 to 10000	> 10000	> 10000	> 10000	> 10000	> 10000	> 10000	> 10000	COc1cc2ccncc2cc1-c1ccc2nc(N3CCC(NC(C)(C)C)C3)ccc2n1 (stereo not shown) [Compound 161]	> 10000	> 10000	C (C represents 1000-9999 nM)
1000 to 10000	> 10000	> 10000	> 10000	> 10000	> 10000	> 10000	> 10000	Cn1cc2cc(-c3ccc4nc(N5CCC56CCNC6)ccc4n3)c(O)cc2n1 (stereo not shown) [Compound 162]	> 10000	> 10000	C (C represents 1000-9999 nM)
100 to 1000	1000 to 10000	> 10000	> 10000	1000 to 10000	1000 to 10000	1000 to 10000	> 10000	Cn1cc2cc(-c3ccc4nc(N5CCC56CCCNC6)ccc4n3)c(O)cc2n1 (stereo not shown) [Compound 163]	> 10000	1000 to 10000	C (C represents 1000-9999 nM)
100 to 1000	100 to 1000	100 to 1000	100 to 1000	100 to 1000	100 to 1000	100 to 1000	100 to 1000	Cn1cc2cc(-c3ccc4nc(N5CCC56CCNCC6)ccc4n3)c(O)cc2n1 [Compound 164]	100 to 1000	100 to 1000	B (B represents 100-1000 nM)
1000 to 10000	1000 to 10000	1000 to 10000	1000 to 10000	1000 to 10000	1000 to 10000	1000 to 10000	1000 to 10000	Cn1cc2cc(-c3ccc4nc(N5CC(NC(C)(C)C)C5)ccc4n3)c(O)cc2n1 [Compound 165]	1000 to 10000	1000 to 10000	B (B represents 100-1000 nM)
> 10000	> 10000	> 10000	> 10000	> 10000	> 10000	> 10000	1000 to 10000	CC(C)(C)NC1CCN(c2ccc3nc(-c4cc5cnccc5cc4O)ccc3n2)C1 (stereo not shown) [Compound 166]	> 10000	> 10000	B (B represents 100-1000 nM)
> 10000	> 10000	> 10000	> 10000	> 10000	> 10000	> 10000	> 10000	Cn1cnc2cc(-c3ccc4nc(N5CCC(NC(C)(C)C)C5)ccc4n3)c(O)cc2c1=O (stereo not shown) [Compound 167]	> 10000	> 10000	B (B represents 100-1000 nM)
> 10000	> 10000	> 10000	> 10000	> 10000	> 10000	> 10000	> 10000	COc1cc2c(=O)n(C)cnc2cc1-c1ccc2nc(N3CCC(NC(C)(C)C)C3)ccc2n1 (stereo not shown) [Compound 168]	> 10000	> 10000	D (D represents greater than 10 μM in K562 cells)
1000 to 10000	1000 to 10000	> 10000	> 10000	> 10000	> 10000	1000 to 10000	> 10000	CN1CCC2(CC1)CCN2c1ccc2nc(-c3cc4cn(C)nc4cc3O)ccc2n1 [Compound 169]	> 10000	> 10000	B (B represents 100-1000 nM)
< 100	< 100	< 100	< 100	100 to 1000	100 to 1000	100 to 1000	100 to 1000	CN[C@H]1CCN(c2ccc3nc(-c4cc5cn(C)nc5cc4O)ccc3n2)C1 [Compound 170]	100 to 1000	100 to 1000	B (B represents 100-1000 nM)
< 100	< 100	< 100	< 100	< 100	< 100	< 100	100 to 1000	CN[C@@H]1CCN(c2ccc3nc(-c4cc5cn(C)nc5cc4O)ccc3n2)C1 [Compound 172]	100 to 1000	< 100	B (B represents 100-1000 nM)
< 100	< 100	< 100	< 100	< 100	< 100	< 100	< 100	CC(C)N[C@@H]1CCN(c2ccc3nc(-c4cc5cn(C)nc5cc4O)ccc3n2)C1 [Compound 173]	< 100	< 100	A (A represents <100 nM)
> 10000	> 10000	> 10000	> 10000	> 10000	> 10000	> 10000	> 10000	Cc1cc(=O)c2cc(O)c(-c3ccc4nc(N5CCC(NC(C)(C)C)C5)ccc4n3)cc2o1 (stereo not shown) [Compound 174]	> 10000	> 10000	A (A represents <100 nM)
